For this assay, the target named is Lysine-specific histone demethylase 1A (Homo sapiens, UniProt O60341). As to the kind of experiment: In Vitro Enzyme Inhibition Assay: The enzymatic assay of LSD1 activity is based on Time Resolved-Fluorescence Resonance Energy Transfer (TR-FRET) detection. The inhibitory properties of compounds to LSD1 were determined in 384-well plate format under the following reaction conditions: 0.1-0.5 nM LSD1, 50 nM H3K4mel-biotin labeled peptide (Anaspec cat #64355), 2 μM FAD in assay buffer of 50 mM HEPES, pH7.3, 10 mM NaCl, 0.005% Brij35, 0.5 mM TCEP, 0.2 mg/ml BSA. Reaction product was determined quantitatively by TR-FRET after the addition of detection reagent Phycolink Streptavidin-allophycocyanin (Prozyme) and Europium-anti-unmodified histone H3 lysine 4 (H3K4) antibody (PerkinElmer) in the presence of LSD1 inhibitor such as 1.8 mM of Tranylcypromine hydrochloride (2-PCPA) in LANCE detection buffer (PerkinElmer) to final concentration of 12.5 nM and 0.25 nM respectively. (TR-FRET usually uses a lanthanide donor and a delayed reading to cut background.)

A word on the IC50: it is the concentration at which inhibition is half-maximal.

Each structure is given as a SMILES string.

With `Cn1ncc2cc(-c3sc(N4CC[C@@H]5CNC[C@@H]5CC4)nc3-c3ccc(C#N)cc3)ccc21`, the IC50 is less than 100 nM.
